In patent US20160159774A1 (Celgene Avilomics Research, Inc., priority 2014, published 2016):

Key:
[1] = molecular target: T1, BTK in Ramos human Burkitt lymphoma cells (Homo sapiens, UniProt Q06187); test: BTK Ramos cellular assay (BTK occupancy); type: cell-based; conditions: concentration producing 50% occupancy of BTK, 1 hour incubation with compound
T1 construct: Compounds of this invention were assayed in Ramos human Burkitt lymphoma cells; endogenous in cells; host or cells: Ramos human Burkitt lymphoma cells
T1 sequence (Q06187 whole entry): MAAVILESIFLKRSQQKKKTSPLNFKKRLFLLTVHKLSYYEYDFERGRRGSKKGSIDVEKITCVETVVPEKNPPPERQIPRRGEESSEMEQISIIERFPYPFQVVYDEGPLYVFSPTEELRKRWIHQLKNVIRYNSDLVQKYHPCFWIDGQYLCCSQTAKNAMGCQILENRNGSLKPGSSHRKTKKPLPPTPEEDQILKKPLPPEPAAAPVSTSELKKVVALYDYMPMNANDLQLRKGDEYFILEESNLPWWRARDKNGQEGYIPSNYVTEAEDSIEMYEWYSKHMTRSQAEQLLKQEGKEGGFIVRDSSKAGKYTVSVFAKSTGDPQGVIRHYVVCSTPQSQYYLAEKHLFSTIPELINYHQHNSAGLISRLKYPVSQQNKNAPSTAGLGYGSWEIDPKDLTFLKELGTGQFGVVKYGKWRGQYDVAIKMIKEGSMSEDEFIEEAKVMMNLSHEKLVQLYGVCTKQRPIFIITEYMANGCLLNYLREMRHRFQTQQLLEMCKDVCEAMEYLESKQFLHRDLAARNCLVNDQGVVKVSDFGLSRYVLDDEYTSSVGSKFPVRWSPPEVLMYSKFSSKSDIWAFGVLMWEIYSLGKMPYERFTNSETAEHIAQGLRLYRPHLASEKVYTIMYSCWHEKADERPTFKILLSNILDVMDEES
Method: BTK activity in Ramos cells, in the presence of a compound of the invention, can be measured by 3 different methods: 1) inhibition of autophosphorylation of BTK; 2) inhibition of phosphorylation of the immediate BTK surrogate PLCγ2; and 3) BTK occupancy. […] In this instance, BTK occupancy was chosen and is described below.
Compounds of this invention were assayed in Ramos human Burkitt lymphoma cells. Ramos cells were grown in suspension in T175 flasks, spun down, resuspended to a concentration of 2×10^6 cells per mL in serum-free media and incubated for 1 hour. Compound was added to Ramos cells to a final concentration of 500, 166.7, 55.6, 18.5, 6.2, 2.1, and 0.7 nM. Ramos cells were incubated with compound for 1 hour, washed with PBS and lysed in 1004 of BioRad lysis Buffer. Cell lysates were incubated with a biotinylated covalent probe (compound 1-215 disclosed in U.S. published application number 2010/0029610, incorporated by reference in its entirety) at a final concentration of 1 μM in a PBS, 0.05% Tween-20, 1% BSA solution for 1 h at room temperature. Standards and samples were transferred to a streptavidin-coated 96-well ELISA plate and mixed while shaking for 1 h at room temperature. The α-Btk antibody (BD 611116, 1:1000 dilution in PBS+0.05% Tween-20+0.5% BSA) was then added and incubated for 1 h at room temperature. After wash, goat α-mouse-HRP (1:5000 dilution in PBS+0.05% Tween-20+0.5% BSA) was added and incubated for 1 h at room temperature. The ELISA was developed with addition of tetramethyl benzidine (TMB) followed by Stop Solution and read at OD 450 nm. The standard curve (11.7-3000 pg/μL) was generated with human full-length recombinant Btk protein and plotted using a 4 parameter curve fit in Gen5 software. Uninhibited Btk detected from samples was normalized to μg total protein as determined by BCA protein analysis (Pierce Cat. 23225).
The results of this assay show the concentration of compound producing 50% occupancy of BTK. This level of occupancy empirically translates to a level of 50% inhibition of BTK activity (both as measured by autophosphorylation and by phosphorylation of PLCγ2). […] The compound numbers correspond to the compound numbers in the examples.

activated BTK enzyme = molecular target: T2, activated BTK enzyme (Homo sapiens, UniProt Q06187); test: Omnia assay for potency assessment against BTK; type: biochemical; conditions: BTK inhibition assay; [BTK]=5 nM, [ATP]=40 μM, [Y5-Sox]=10 μM
T2 construct: purchased Life Technologies PV3363
T2 sequence (Q06187 whole entry): as above
Excerpt: Omnia Assay Protocol for Potency Assessment Against BTK
The protocol below describes an assay to measure potency of compounds against the activated BTK enzyme. The mechanics of the assay platform are best described by the vendor (Life Technologies, Carlsbad, Calif.) on their website at the following URLs: www.lifetechnologies.com/us/en/home/life-science/drug-discovery/target-and-lead-identification-and-validation/kinasebiology/kinase-activity-assays/omnia-kinase-assays/omnia-kinase-principle.html and tools.lifetechnologies.com/content/sfs/manuals/omnia_kinase_assay_man.pdf
Briefly, 10× stocks of BTK (PV3363) from Life Technologies, 1.13×ATP (AS00lA) and Sox conjugated peptide substrates, Y5-Sox, (KZN305l) were prepared in 1× kinase reaction buffer consisting of 20 mM Tris, pH 7.5, 5 mM MgCl2, 1 mM EGTA, 5 mM (3-glycerophosphate, 5% glycerol (10× stock, KB002A) and 0.2 mM DTT (DS00lA). 5 μL of each enzyme were pre-incubated in a Corning (#3574) 384-well, white, non-binding surface microtiter plate (Corning, N.Y.) for 30 min. at room temperature with a 0.5 μL volume of 50% DMSO or serially diluted compounds prepared in 50% DMSO. Kinase reactions were started with the addition of […] of the ATP/Tyr-Sox peptide substrate Y5 mix and monitored every 71 seconds for 60 minutes at λex360/λem485 in a Synergy4 plate reader from BioTek (Winooski, Vt.). At the conclusion of each assay, progress curves from each well were examined for linear reaction kinetics and fit statistics (R2, 95% confidence interval, absolute sum of squares). Initial velocity (0 minutes to ˜30 minutes) from each reaction was determined from the slope of a plot of relative fluorescence units vs time (minutes) and then plotted against inhibitor concentration to estimate IC50 from log [Inhibitor] vs Response, Variable Slope model in GraphPad Prism from GraphPad Software (San Diego, Calif.).
Reagent conditions for the assay are:
[BTK]=5 nM, [ATP]=40 μM, [Y5-Sox]=10 μM (ATP KMapp˜36 μM).
The compound numbers correspond to the compound numbers in the examples.

Structure (SMILES)	EC50 [1] [nM]	IC50 (activated BTK enzyme) [nM]
C=CC(=O)N1CCC[C@@H](Nc2nc(Nc3ccc4c(c3)CNCCC4)ncc2F)C1 [Compound I-53, (R)-1-(3-(5-Fluoro-2-(2,3,4,5-tetrahydro-1H-benzo[c]azepin-8-ylamino)pyrimidin-4-ylamino)piperidin-1-yl)prop-2-en-1-one]	< 10	< 10
C=CC(=O)N1CCC[C@@H](Nc2nc(Nc3ccc4c(c3)CCN(C3CC3)C4)ncc2F)C1 [Compound I-44, (R)-1-(3-((2-((2-Cyclopropyl-1,2,3,4-tetrahydroisoquinolin-6-yl)amino)-5-fluoropyrimidin-4-yl)amino)piperidin-1-yl)prop-2-en-1-one]	10 to 100	< 10
[2H]C([2H])([2H])N1Cc2ccc(Nc3ncc(F)c(N[C@@H]4CCCN(C(=O)C=C)C4)n3)cc2C1 [Compound I-20, (R)-1-(3-((5-Fluoro-2-((2-deuteromethylisoindolin-5-yl)amino)pyrimidin-4-yl)amino)piperidin-1-yl)prop-2-en-1-one]	< 10	< 10
C=CC(=O)N1CCC[C@@H](Nc2nc(Nc3ccc4c(c3)CN(C3CCOCC3)C4)ncc2F)C1 [Compound I-12, (R)-1-(3-((5-Fluoro-2-((2-(tetrahydro-2H-pyran-4-yl)isoindolin-5-yl)amino)-pyrimidin-4-yl)amino)piperidin-1-yl)prop-2-en-1-one]	10 to 100	< 10
C=CC(=O)N1CCC[C@@H](Nc2nc(Nc3ccc4c(c3)CN(C3CC3)C4)ncc2F)C1 [Compound I-21, (R)-1-(3-((2-((2-cyclopropylisoindolin-5-yl)amino)-5-fluoropyrimidin-4-yl)amino)piperidin-1-yl)prop-2-en-1-one]	10 to 100	< 10
C=CC(=O)N1CCC[C@@H](Nc2nc(Nc3ccc4c(c3)CN(CC(C)(C)C)C4)ncc2F)C1 [Compound I-14, (R)-1-(3-((5-Fluoro-2-((2-neopentylisoindolin-5-yl)amino)pyrimidin-4-yl)amino)piperidin-1-yl)prop-2-en-1-one]	10 to 100	< 10
C=CC(=O)N1CCC[C@@H](Nc2nc(Nc3ccc4c(c3)CN(C3CCC3)CC4)ncc2F)C1 [Compound I-46, (R)-1-(3-(2-(2-Cyclobutyl-1,2,3,4-tetrahydroisoquinolin-7-ylamino)-5-fluoropyrimidin-4-ylamino)piperidin-1-yl)prop-2-en-1-one]	< 10	< 10
C=CC(=O)N1CCC[C@@H](Nc2nc(Nc3ccc4c(c3)CCCN(C3CC3)C4)ncc2F)C1 [Compound I-51, (R)-1-(3-((2-((2-Cyclopropyl-2,3,4,5-tetrahydro-1H-benzo[c]azepin-7-yl)amino)-5-fluoropyrimidin-4-yl)amino)piperidin-1-yl)prop-2-en-1-one]	10 to 100	< 10
C=CC(=O)N1CCC[C@@H](Nc2nc(Nc3ccc4c(c3)CN(c3ccc(F)cc3)C4)ncc2F)C1 [Compound I-24, (R)-1-(3-((5-fluoro-2-((2-(4-fluorophenyl)isoindolin-5-yl)amino)pyrimidin-4-yl)amino)piperidin-1-yl)prop-2-en-1-one]	101 to 1000	< 10
C=CC(=O)N1CCC[C@@H](Nc2nc(Nc3ccc4c(c3)CN(C(C)=O)C4)ncc2F)C1 [Compound I-3, (R)-1-(3-((2-((2-Acetylisoindolin-5-yl)amino)-5-fluoropyrimidin-4-yl)amino)-piperidin-1-yl)prop-2-en-1-one]	101 to 1000	< 10
C=CC(=O)N1CCC[C@@H](Nc2nc(Nc3ccc4c(c3)CCN(C3CCC3)C4)ncc2F)C1 [Compound I-42, (R)-1-(3-((2-((2-cyclobutyl-1,2,3,4-tetrahydroisoquinolin-6-yl)amino)-5-fluoropyrimidin-4-yl)amino)piperidin-1-yl)prop-2-en-1-one]	< 10	< 10
C=CC(=O)N1CCC[C@@H](Nc2nc(Nc3ccc4c(c3)CN(CC3CCN(C(C)=O)CC3)C4)ncc2F)C1 [Compound I-10]	10 to 100	< 10
C=CC(=O)N1CCC[C@@H](Nc2nc(Nc3ccc4c(c3)CCN(C(C)(C)C)C4)ncc2F)C1 [Compound I-45, (R)-1-(3-((2-((2-(tert-Butyl)-1,2,3,4-tetrahydroisoquinolin-6-yl)amino)-5-fluoropyrimidin-4-yl)amino)piperidin-1-yl)prop-2-en-1-one]	< 10	< 10
C=CC(=O)N1CCC[C@@H](Nc2nc(Nc3ccc4c(c3)CN(CC3COC3)C4)ncc2F)C1 [Compound I-15, (R)-1-(3-((5-Fluoro-2-((2-(oxetan-3-ylmethyl)isoindolin-5-yl)amino)pyrimidin-4-yl)amino)piperidin-1-yl)prop-2-en-1-one]	10 to 100	< 10
C=CC(=O)N1CCC[C@@H](Nc2nc(Nc3ccc4c(c3)CN(CCO)C4)ncc2F)C1 [Compound I-23, (R)-1-(3-((5-fluoro-2-((2-(2-hydroxyethyl)isoindolin-5-yl)amino)pyrimidin-4-yl)amino)piperidin-1-yl)prop-2-en-1-one]	< 10	< 10
C=CC(=O)N1CCC[C@@H](Nc2nc(Nc3ccc4c(c3)CN(C3CCN(C(C)=O)CC3)C4)ncc2F)C1 [Compound I-9, (R)-1-(3-(2-(2-(1-Acetylpiperidin-4-yl)isoindolin-5-ylamino)-5-fluoropyrimidin-4-ylamino)piperidin-1-yl)prop-2-en-1-one]	10 to 100	< 10
C=CC(=O)N1CCC[C@@H](Nc2nc(Nc3ccc4c(c3)CCN(C)C4)ncc2F)C1 [Compound I-28, (R)-1-(3-((5-Fluoro-2-((2-methyl-1,2,3,4-tetrahydroisoquinolin-6-yl)amino)-pyrimidin-4-yl)amino)piperidin-1-yl)prop-2-en-1-one]	10 to 100	< 10
C=CC(=O)N1CCC[C@@H](Nc2nc(Nc3ccc4c(c3)CCN(C(C)C)C4)ncc2F)C1 [Compound I-29, (R)-1-(3-((5-Fluoro-2-((2-isopropyl-1,2,3,4-tetrahydroisoquinolin-6-yl)amino)-pyrimidin-4-yl)amino)piperidin-1-yl)prop-2-en-1-one]	10 to 100	< 10
C=CC(=O)N1CCC[C@@H](Nc2nc(Nc3ccc4c(c3)CN(CCF)C4)ncc2F)C1 [Compound I-39, (R)-1-(3-((5-Fluoro-2-((2-(2-fluoroethyl)isoindolin-5-yl)amino)pyrimidin-4-yl)amino)piperidin-1-yl)prop-2-en-1-one]	10 to 100	< 10
C=CC(=O)N1CCC[C@@H](Nc2nc(Nc3ccc4c(c3)CN(CC3CCNCC3)C4)ncc2F)C1 [Compound I-6, (R)-1-(3-((5-Fluoro-2-((2-(piperidin-4-ylmethyl)isoindolin-5-yl)amino)pyrimidin-4-yl)amino)piperidin-1-yl)prop-2-en-1-one]	101 to 1000	< 10
C=CC(=O)N1CCC[C@@H](Nc2nc(Nc3ccc4c(c3)CN(CC(N)=O)C4)ncc2F)C1 [Compound I-16]	< 10	< 10
